How the values were obtained:
MDA-MB-231 (231) cells = assay: subG1 (hypodiploid) fraction by flow cytometry, 231 cells; type: cell-based
Description: (§1) Trypsinized cells were resuspended in PBS at 10^6 cells/ml. Cells were then fixed by addition of ice-cold 70% ethanol. Ethanol-fixed cells were kept overnight at 4° C. before staining. Cells were pelleted and washed twice with PBS. Cell pellets were incubated for an hour at room temperature with mouse anti-MPM-2 antibody (Millipore, Mass., USA), followed by 1 h incubation with Alexa-488 anti-mouse secondary antibody (Life Technologies, NY, USA). Finally cells were washed, pelleted and resuspended in propidium iodide-containing isotonic buffer (0.1 mg/mL) and 0.5% Triton X-100. Cell cycle distribution was determined by flow cytometry using an LSR Fortessa Flow cytometer (BD Biosciences, CA, USA) and analyzed using Flowjo software (Tree Star, OR, USA). […] The duration, highest degree, and rapidity of onset of MA varied between drugs, drug concentrations, and cell lines (FIGS. 2A, 2B). In general, the maximum MA achieved was less pronounced in Nos- and PJ-treated cells (FIGS. 2A, 2B). Drug-induced onset of MA was corroborated by substantial increases in cyclin B1 levels in all cell lines (FIG. 2C). […] Instances where the subG1 fraction was elevated without cleaved caspase-3 may either represent caspase-independent cell death or the presence of hypodiploid cells whose fate is unclear.

HeLa cells [1] = assay: subG1 (hypodiploid) fraction by flow cytometry, HeLa cells; type: cell-based
Description: as §1

PC3 cells = assay: subG1 (hypodiploid) fraction by flow cytometry, PC3 cells; type: cell-based
Description: as §1

[2] = test system: adult human dermal fibroblasts (HDF); assay: subG1 (hypodiploid) fraction by flow cytometry, HDFs; type: cell-based
[3] = test system: mammary fibrocystic (MCF10A) cells; assay: subG1 (hypodiploid) fraction by flow cytometry, MCF10A cells; type: cell-based; details: for Peak subG1 percent over 48 h: MCF10A
231 cells = assay: Centrosome amplification (CA) by microscopy, 231 cells; type: cell-based; details: for maximum extent of CA in mitotic cells: over 24 h
Description: (§2) Consequently, CA was assessed in cultures treated with different concentrations of declustering drugs for 6, 12, 18, or 24 h and untreated controls via microscopy. […] The peak percent CA detected over 24 h is shown in FIG. 6 (only statistically significant (P<0.05) increases over control values are represented in the Figures). Representative confocal micrographs of CA in interphase and mitotic cells, both control and drug treated, are depicted in FIG. 7. […] To better understand the “potency” of drug-induced CA with time, the average fold change in CA over controls over 24 h was assessed (FIG. 5A), whereby the extent of CA across time points (i.e., 6, 12, 18, and 24 h) was averaged and then divided by the extent of CA in control (i.e., 0 h). […] For Nos and BN, there was no major difference in CA levels in interphase versus mitotic cells.

HeLa cells [4] = assay: Centrosome amplification (CA) by microscopy, HeLa cells; type: cell-based
Description: as §2

MCF10A cells = assay: Centrosome amplification (CA) by microscopy, MCF10A cells; type: cell-based; details: interphase and mitotic cells, over 24 h
Description: (§3) Consequently, CA was assessed in cultures treated with different concentrations of declustering drugs for 6, 12, 18, or 24 h and untreated controls via microscopy. Centrosomes were identified by γ-tubulin and centrin-2 colocalization at discrete foci. […] The peak percent CA detected over 24 h is shown in FIG. 6 (only statistically significant (P<0.05) increases over control values are represented in the Figures). Representative confocal micrographs of CA in interphase and mitotic cells, both control and drug treated, are depicted in FIG. 7. No significant correlations between the degree of CA (FIG. 5A) and the expression levels of PLK4, Cyclin E, and Aurora A were found (FIG. 4).
(§4) To determine whether the CA-inducing activity of declustering drugs is restricted to cancer cells, two non-malignant cell lines, mammary fibrocystic (MCF10A) cells and adult human dermal fibroblasts were treated with these drugs. Neither one of RBN, GF or PJ induced CA or cell death (Table 8) in these cell lines. […] In comparison, 10 and 25 μM RBN increased peak CA over controls in interphase cells (p<0.001 and p=0.001, respectively), with the lower concentration dramatically augmenting peak CA to 56% of cells versus 15% for the higher dose (FIG. 9B). Only 10 but not 25 μM RBN increased the extent of CA in mitotic cells, and this upregulation was only slight (10%, p=0.041).

[5] = test system: human dermal fibroblasts (HDFs); assay: Centrosome amplification (CA) by microscopy, HDFs; type: cell-based
Description: as §3, §4

231, HeLa and PC3 cells = assay: Centrosome amplification (CA) by microscopy, all cancer cell lines tested; type: cell-based
Description: as §3
To better understand the “potency” of drug-induced CA with time, the average fold change in CA over controls over 24 h was assessed (FIG. 5A), whereby the extent of CA across time points (i.e., 6, 12, 18, and 24 h) was averaged and then divided by the extent of CA in control (i.e., 0 h). All of the drugs at least doubled the peak extent of CA in all cell lines tested (FIG. 5A), although the final extent of CA could be small or large in magnitude depending on the initial centrosomal burden as shown in FIG. 4. […] The extent of CA was less in interphase cells, with maximum values of 31% and 87% for 10 and 25 μM RBN (FIG. 6A). […]

HDFs and MCF10A cells = assay: Spindle multipolarity (MP) in non-malignant cell lines; type: cell-based
[6] = test system: human ovarian cancer xenografts; details: nude mice carrying human ovarian cancer xenografts; cited from earlier work

reduced bromonoscapine [RBN]
Peak subG1 percent over 48 h (MDA-MB-231 (231) cells; 10 μM): 47.0%
Peak subG1 percent over 48 h (MDA-MB-231 (231) cells; 25 μM): 80.8%
maximum subG1 fraction relative to control (MDA-MB-231 (231) cells; 25 μM): 25 × control
Peak subG1 percent over 48 h (HeLa cells [1]; 10 μM): 54.1%
maximum subG1 fraction relative to control (HeLa cells [1]; 10 μM): 9 × control
Peak subG1 percent over 48 h (HeLa cells [1]; 25 μM): 75.6%
Peak subG1 percent over 48 h (PC3 cells; 10 μM): 80.7%
maximum subG1 fraction relative to control (PC3 cells; 10 μM): 8 × control
Peak subG1 percent over 48 h (PC3 cells; 25 μM): 73.0%
Peak subG1 percent over 48 h ([2]; 10 μM): 35.9%
Peak subG1 percent over 48 h ([2]; 25 μM): 39.9%
change of peak subG1 percent compared to controls (in words) ([3]; MCF10A cells): did increase peak SubG1 in MCF10A cells compared to controls
Peak subG1 percent over 48 h ([3]; 10 μM): 36.4%
Peak subG1 percent over 48 h ([3]; 25 μM): 44.0%
change of peak CA extent over control (231 cells; 25 μM): only slightly more than doubled the peak CA extent
final extent of CA (231 cells; 25 μM): around 90%
maximum extent of CA in interphase cells (231 cells; 10 μM): 31%
maximum extent of CA in interphase cells (231 cells; 25 μM): 87%
fold increase of CA over controls, mitotic cells (231 cells; 10 μM): ~2.5 fold
maximum extent of CA in mitotic cells (231 cells; 10 μM): 56%
fold increase of CA over controls, mitotic cells (231 cells; 25 μM): ~2.0 fold
maximum extent of CA in mitotic cells (231 cells; 25 μM): 96%
peak extent of CA in interphase cells (HeLa cells [4]; interphase, 10 μM): 30.7%
peak / final extent of CA in interphase cells (HeLa cells [4]; interphase, 25 μM): 48.1%
cells having CA, mitotic cells (HeLa cells [4]; 10 μM): 78%
fold increase of CA, mitotic cells (HeLa cells [4]; 10 μM): approximately 40 fold
cells having CA, mitotic cells (HeLa cells [4]; 25 μM): 42%
fold increase of CA, mitotic cells (HeLa cells [4]; 25 μM): ~20 fold
change of CA over control levels (in words) (MCF10A cells): significantly increased the peak extent of CA in interphase and mitotic MCF10A cells
peak CA in interphase cells ([5]; 10 μM): 56%
peak CA in interphase cells ([5]; 25 μM): 15%
extent of CA in mitotic cells ([5]; mitotic, 10 μM): 10%
induction of CA (231, HeLa and PC3 cells): induced CA in all three cell lines
induction of MP over control levels (HDFs and MCF10A cells): significantly induce MP over control levels
toxicity in normal tissues [6]: toxicity was not detected in normal tissues
tumor progression [6]: inhibited tumor progression

From patent US20150309031A2, “COMPOSITIONS AND METHODS FOR PROGNOSIS AND TREATMENT OF CANCER” (NOVAZOI THERANOSTICS, priority 2013, published 2015)
